The supplement of paper PMC5579334

How the values were obtained:
YST-1 [1] = test: drug sensitivity score (DSS, CellTiter-Glo viability, 72 h) (DSS (dimensionless)); higher = more sensitive; extreme values may be limits of the assay
Summary of the method: (§1)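 Viability was scored by CellTiter-Glo ATP luminescence, scaled from vehicle to positive-control wells, with duplicates averaged where present. The cells, MPNST lines and primary human Schwann cells at 750–1000 per well, sat 72 h at 37 °C, 5% CO2, in 384-well plates preprinted with each compound at five concentrations in 10-fold steps. Four-parameter logistic fits were run on the data. These fits give drug sensitivity score and relative IC50 censored at the top concentration, and percent inhibition is reported at the top concentration.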

HS-PSS [2] = test: as above
Summary of the method: as §1

HS-Sch-2 [3] = test: as above
Summary of the method: as §1

HS-PSS [4] = test: drug sensitivity score (DSS, CellTox-Green cytotoxicity, 72 h) (DSS (dimensionless)); higher = more cytotoxic; extreme values may be limits of the assay
Summary of the method: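 MPNST cell lines and primary human Schwann cells were incubated 72 h at 37 °C in 384-well plates holding five 10-fold compound dilutions. CellTox-Green was added before seeding at a final 1:1000 dilution and reported fluorescence from DNA released by disrupted cells. Signals were scaled to vehicle and positive-control wells, and cultures failing plate quality control were dropped. Drug sensitivity score and relative IC50 come from four-parameter logistic fits, with IC50 censored at the top concentration.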

YST-1 [5] = test: % inhibition of CellTiter-Glo viability at highest tested concentration (72 h), relative to DMSO and benzethonium chloride controls; higher = more inhibition
Summary of the method: as §1

HS-PSS [6] = test: as above
Summary of the method: as §1

HS-Sch-2 [7] = test: as above
Summary of the method: as §1

## Cc1cc(-c2ncc(-c3cccnc3)cc2/C=C/c2ccccc2)cnc1-c1cccnc1 [Pyridoclax] (max concentration tested 25000 nM)
YST-1 [1]
  drug sensitivity score: 16.5
HS-PSS [2]
  drug sensitivity score: 0.36
HS-Sch-2 [3]
  drug sensitivity score: 1.52
HS-PSS [4]
  drug sensitivity score: 0
YST-1 [5]
  % inhibition: 62.7%
HS-PSS [6]
  % inhibition: 9.44%
HS-Sch-2 [7]
  % inhibition: 19.9%

## Cn1nccc1Nc1nccc(-c2ccn([C@H](CO)c3ccc(Cl)c(F)c3)c(=O)c2)n1 [GDC-0994] (max concentration tested 10000 nM)
YST-1 [1]
  drug sensitivity score: 1.37
HS-PSS [2]
  drug sensitivity score: 0
HS-Sch-2 [3]
  drug sensitivity score: 5.84
HS-PSS [4]
  drug sensitivity score: 0
YST-1 [5]
  % inhibition: 40%
HS-PSS [6]
  % inhibition: 8.18%
HS-Sch-2 [7]
  % inhibition: 92.6%

## FC(F)(F)c1ccc(/C=C/c2nc(COc3ccc(CCCCn4ccnn4)cc3)co2)cc1 [Mubritinib] (max concentration tested 1000 nM)
YST-1 [1]
  drug sensitivity score: 6.65
HS-PSS [2]
  drug sensitivity score: 17.4
HS-Sch-2 [3]
  drug sensitivity score: 12.9
HS-PSS [4]
  drug sensitivity score: 0
YST-1 [5]
  % inhibition: 28.4%
HS-PSS [6]
  % inhibition: 74.8%
HS-Sch-2 [7]
  % inhibition: 62.9%

## CON(C)C(=O)N1N=C(c2cc(F)ccc2F)S[C@@]1(CCCN)c1ccccc1 [Filanesib] (max concentration tested 1000 nM)
YST-1 [1]
  drug sensitivity score: 25.7
HS-PSS [2]
  drug sensitivity score: 7.81
HS-Sch-2 [3]
  drug sensitivity score: 29.1
HS-PSS [4]
  drug sensitivity score: 0
YST-1 [5]
  % inhibition: 78.3%
HS-PSS [6]
  % inhibition: 29%
HS-Sch-2 [7]
  % inhibition: 88.7%

## COc1cc(OC)c(/C=C/S(=O)(=O)Cc2ccc(OC)c(NCC(=O)O)c2)c(OC)c1 [Rigosertib] (max concentration tested 10000 nM)
YST-1 [1]
  drug sensitivity score: 21.8
HS-PSS [2]
  drug sensitivity score: 14.8
HS-Sch-2 [3]
  drug sensitivity score: 21.8
HS-PSS [4]
  drug sensitivity score: 0
YST-1 [5]
  % inhibition: 79.3%
HS-PSS [6]
  % inhibition: 61.8%
HS-Sch-2 [7]
  % inhibition: 87.6%

## O=C(O)CC1CC(c2ccccc2)=NO1 (stereo not given) [VGX-1027] (max concentration tested 10000 nM)
YST-1 [1]
  drug sensitivity score: 0
HS-PSS [2]
  drug sensitivity score: 0
HS-Sch-2 [3]
  drug sensitivity score: 0.12
HS-PSS [4]
  drug sensitivity score: 0
YST-1 [5]
  % inhibition: 4%
HS-PSS [6]
  % inhibition: 4.47%
HS-Sch-2 [7]
  % inhibition: 13.4%

## CC(C)[C@H](C(=O)Nc1ccc(C(=O)NO)cc1)c1ccccc1 [AR-42] (max concentration tested 10000 nM)
YST-1 [1]
  drug sensitivity score: 17.8
HS-PSS [2]
  drug sensitivity score: 10
HS-Sch-2 [3]
  drug sensitivity score: 10.9
HS-PSS [4]
  drug sensitivity score: 5
YST-1 [5]
  % inhibition: 100%
HS-PSS [6]
  % inhibition: 88.1%
HS-Sch-2 [7]
  % inhibition: 101%

## CNC(=O)[C@@H](NC(=O)[C@H](CC(C)C)[C@H](O)C(=O)NO)C(C)(C)C [Marimastat] (max concentration tested 10000 nM)
YST-1 [1]
  drug sensitivity score: 0
HS-PSS [2]
  drug sensitivity score: 0
HS-Sch-2 [3]
  drug sensitivity score: 0.33
HS-PSS [4]
  drug sensitivity score: 0
YST-1 [5]
  % inhibition: 7.56%
HS-PSS [6]
  % inhibition: -7.14%
HS-Sch-2 [7]
  % inhibition: 17.1%

## CCn1nnc2c(N3CCOCC3)nc(-c3ccc(NC(=O)Nc4ccc(C(=O)N5CCN(C)CC5)cc4)cc3)nc21 [PKI-402] (max concentration tested 2500 nM)
YST-1 [1]
  drug sensitivity score: 17.3
HS-PSS [2]
  drug sensitivity score: 15.3
HS-Sch-2 [3]
  drug sensitivity score: 12.4
HS-PSS [4]
  drug sensitivity score: 0.89
YST-1 [5]
  % inhibition: 90.9%
HS-PSS [6]
  % inhibition: 75.8%
HS-Sch-2 [7]
  % inhibition: 75.5%

## COc1cc(C(=O)NC2CCN(C)CC2)c(F)cc1Nc1ncc2c(n1)N(C1CCCC1)CC(F)(F)C(=O)N2C [TAK-960] (max concentration tested 2500 nM)
YST-1 [1]
  drug sensitivity score: 0
HS-PSS [2]
  drug sensitivity score: 0
HS-Sch-2 [3]
  drug sensitivity score: 0.18
HS-PSS [4]
  drug sensitivity score: 0
YST-1 [5]
  % inhibition: 2.44%
HS-PSS [6]
  % inhibition: 11.9%
HS-Sch-2 [7]
  % inhibition: 16.2%

## O=C(O)C(=O)O.[NH-][C@@H]1CCCC[C@H]1[NH-].[Pt+2] [Oxaliplatin] (max concentration tested 100000 nM)
YST-1 [1]
  drug sensitivity score: 19.6
HS-PSS [2]
  drug sensitivity score: 8.54
HS-Sch-2 [3]
  drug sensitivity score: 11.4
HS-PSS [4]
  drug sensitivity score: 3.02
YST-1 [5]
  % inhibition: 97.7%
HS-PSS [6]
  % inhibition: 69.2%
HS-Sch-2 [7]
  % inhibition: 100%

## CCn1c(=O)c(-c2cc[nH]n2)cc2c(C)nc(N)nc21 [Voxtalisib] (max concentration tested 10000 nM)
YST-1 [1]
  drug sensitivity score: 9.29
HS-PSS [2]
  drug sensitivity score: 3.33
HS-Sch-2 [3]
  drug sensitivity score: 4.83
HS-PSS [4]
  drug sensitivity score: 0
YST-1 [5]
  % inhibition: 86.5%
HS-PSS [6]
  % inhibition: 48.4%
HS-Sch-2 [7]
  % inhibition: 64.5%

## CC(C)N(C[C@H]1O[C@@H](n2cnc3c(N)ncnc32)[C@H](O)[C@@H]1O)[C@H]1C[C@@H](CCc2nc3cc(C(C)(C)C)ccc3[nH]2)C1 [Pinometostat] (max concentration tested 1000 nM)
YST-1 [1]
  drug sensitivity score: 0
HS-PSS [2]
  drug sensitivity score: 0
HS-Sch-2 [3]
  drug sensitivity score: 0
HS-PSS [4]
  drug sensitivity score: 0
YST-1 [5]
  % inhibition: -2.52%
HS-PSS [6]
  % inhibition: 5.45%
HS-Sch-2 [7]
  % inhibition: -7.39%

## CC(C)NC[C@@H](C(=O)N1CCN(c2ncnc3c2[C@H](C)C[C@H]3O)CC1)c1ccc(Cl)cc1 [Ipatasertib] (max concentration tested 10000 nM)
YST-1 [1]
  drug sensitivity score: 6.9
HS-PSS [2]
  drug sensitivity score: 3.83
HS-Sch-2 [3]
  drug sensitivity score: 4.24
HS-PSS [4]
  drug sensitivity score: 0.28
YST-1 [5]
  % inhibition: 55.2%
HS-PSS [6]
  % inhibition: 37.1%
HS-Sch-2 [7]
  % inhibition: 39.1%

## NC1(C(=O)N[C@@H](CCO)c2ccc(Cl)cc2)CCN(c2ncnc3[nH]ccc23)CC1 [AZD-5363] (max concentration tested 10000 nM)
YST-1 [1]
  drug sensitivity score: 4.35
HS-PSS [2]
  drug sensitivity score: 0.45
HS-Sch-2 [3]
  drug sensitivity score: 3.33
HS-PSS [4]
  drug sensitivity score: 0
YST-1 [5]
  % inhibition: 56.9%
HS-PSS [6]
  % inhibition: 20.3%
HS-Sch-2 [7]
  % inhibition: 66.5%
